Experimental data taken from patent US8871753B2, “Macrocyclic compounds and their use as kinase inhibitors” (Incyte Corporation, priority 2008, dated 2014).
Counter-ions that a name gives are not always drawn. Like-named read-outs stand apart in the source and are kept apart here.

Key:
Format in all cases: biochemical
[1] = molecular target: T1, human JAK1 (a.a. 837-1142) (Homo sapiens, UniProt P23458); test: In vitro JAK kinase assay (HTRF, phosphorylation of a biotinylated peptide), JAK1; settings: read-out: JAK1 IC50
T1 construct: human JAK1 (a.a. 837-1142); His tag (N); made in house; host or cells: insect cells (baculovirus)
In short: (§1)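 Phosphorylation of a biotinylated peptide by the JAK kinase domain, detected by HTRF with Eu-Py20 and SA-APC. ATP was 90 μM for JAK1, 30 μM for JAK2 and 3 μM for JAK3. Reactions ran 1 h at room temperature and were stopped with EDTA, followed by 40 min antibody binding.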

[2] = molecular target: T2, human JAK2 (a.a. 828-1132) (Homo sapiens, UniProt O60674); test: In vitro JAK kinase assay (HTRF, phosphorylation of a biotinylated peptide), JAK2
T2 construct: JAK2 (a.a. 828-1132); His tag (N); made in house; host or cells: insect cells (baculovirus)
In short: as §1

[3] = molecular target: T3, Recombinant Human Anaplastic Lymphoma Kinase (Homo sapiens, UniProt Q9UM73); test: ALK HTRF kinase assay
T3 construct: purchased Invitrogen, Carlsbad, Calif
Description: Materials: Recombinant Human Anaplastic Lymphoma Kinase was purchased from Invitrogen, Carlsbad, Calif. Peptide substrate (Biotin-[…]-amide) was custom synthesized at EZBiolab, Westfield, Ind. Streptavidin conjugated SureLight-Allophycocyania and LANCE Eu-W1024 labeled anti-phosphotyrosine antibody were from Perkin-Elmer, Boston, Mass. Microplates were from Corning Inc., Acton, Mass. All other reagents were from Sigma, St. Louis, Mo.
Plates were read in Fusion α-FP instrument (Perkin-Elmer). […] Signal=Bottom+(Top−Bottom)/(1+10^((Log(IC50)−Log [I])*Hill Slope) Bottom and Top refer to the post and pre-transition baselines, respectively.

[4] = molecular target: T4, human JAK3 (a.a. 781-1124) (Homo sapiens, UniProt P52333); test: In vitro JAK kinase assay (HTRF, phosphorylation of a biotinylated peptide), JAK3
T4 construct: JAK3 (a.a. 781-1124); His tag (N); made in house; host or cells: insect cells (baculovirus)
In short: as §1

TYK2 = TYK2 (Homo sapiens, UniProt P29597); test: TYK2 kinase inhibition (Table A1)
[5] = method AA1 (90 μM ATP) or AA2 (1000 μM ATP), not stated per value
[6] = method AA1 (30 μM ATP) or AA2 (1000 μM ATP), not stated per value
[7] = compound at 500 nM or 1 mM, 90 μM ATP

T4 sequence (P52333 781-1124): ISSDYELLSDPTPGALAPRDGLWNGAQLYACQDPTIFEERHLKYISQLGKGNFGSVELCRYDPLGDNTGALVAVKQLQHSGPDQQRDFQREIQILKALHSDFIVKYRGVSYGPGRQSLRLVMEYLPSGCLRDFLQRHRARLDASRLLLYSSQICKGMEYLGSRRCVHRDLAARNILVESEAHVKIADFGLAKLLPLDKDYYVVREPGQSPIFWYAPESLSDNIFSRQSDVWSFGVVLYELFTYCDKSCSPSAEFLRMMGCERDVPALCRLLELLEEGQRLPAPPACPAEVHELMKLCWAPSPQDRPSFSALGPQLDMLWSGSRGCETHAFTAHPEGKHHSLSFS
Chain of TYK2 (P29597 whole entry): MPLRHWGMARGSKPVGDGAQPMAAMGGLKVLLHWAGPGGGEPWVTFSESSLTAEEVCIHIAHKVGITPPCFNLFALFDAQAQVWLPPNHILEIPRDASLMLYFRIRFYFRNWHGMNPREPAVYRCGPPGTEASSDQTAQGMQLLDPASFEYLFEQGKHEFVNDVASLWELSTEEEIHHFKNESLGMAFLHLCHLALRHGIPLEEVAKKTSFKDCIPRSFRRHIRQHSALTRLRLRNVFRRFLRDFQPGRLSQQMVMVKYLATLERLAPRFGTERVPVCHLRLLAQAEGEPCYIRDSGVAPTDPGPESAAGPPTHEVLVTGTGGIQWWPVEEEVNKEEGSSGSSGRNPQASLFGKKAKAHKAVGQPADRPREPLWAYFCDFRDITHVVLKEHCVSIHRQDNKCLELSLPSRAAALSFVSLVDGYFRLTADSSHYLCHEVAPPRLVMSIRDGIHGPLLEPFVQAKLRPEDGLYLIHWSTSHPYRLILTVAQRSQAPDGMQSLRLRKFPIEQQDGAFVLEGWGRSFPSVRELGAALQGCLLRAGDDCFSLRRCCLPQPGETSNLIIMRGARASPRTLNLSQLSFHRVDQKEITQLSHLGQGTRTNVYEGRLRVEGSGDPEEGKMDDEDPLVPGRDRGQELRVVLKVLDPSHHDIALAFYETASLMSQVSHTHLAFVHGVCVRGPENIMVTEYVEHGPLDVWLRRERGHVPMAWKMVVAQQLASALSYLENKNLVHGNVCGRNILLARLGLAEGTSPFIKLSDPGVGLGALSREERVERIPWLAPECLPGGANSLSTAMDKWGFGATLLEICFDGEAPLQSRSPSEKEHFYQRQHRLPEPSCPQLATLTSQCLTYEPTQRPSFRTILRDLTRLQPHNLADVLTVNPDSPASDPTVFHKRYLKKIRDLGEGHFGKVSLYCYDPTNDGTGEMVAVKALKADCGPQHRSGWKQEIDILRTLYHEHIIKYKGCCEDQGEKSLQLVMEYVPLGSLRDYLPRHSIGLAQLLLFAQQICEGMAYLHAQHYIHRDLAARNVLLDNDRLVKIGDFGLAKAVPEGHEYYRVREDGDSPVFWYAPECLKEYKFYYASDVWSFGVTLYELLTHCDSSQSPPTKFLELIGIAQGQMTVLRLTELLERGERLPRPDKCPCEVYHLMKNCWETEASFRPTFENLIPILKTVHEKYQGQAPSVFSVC
T2 sequence (O60674 828-1132): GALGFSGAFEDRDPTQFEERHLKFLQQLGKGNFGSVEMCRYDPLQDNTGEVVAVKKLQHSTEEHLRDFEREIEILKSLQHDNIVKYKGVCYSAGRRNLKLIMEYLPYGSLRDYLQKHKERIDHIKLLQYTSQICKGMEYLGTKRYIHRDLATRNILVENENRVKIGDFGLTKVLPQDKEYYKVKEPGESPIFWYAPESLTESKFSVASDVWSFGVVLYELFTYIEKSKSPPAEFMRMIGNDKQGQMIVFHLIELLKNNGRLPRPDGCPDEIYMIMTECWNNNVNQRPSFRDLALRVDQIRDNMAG
T1 sequence (P23458 849-1154): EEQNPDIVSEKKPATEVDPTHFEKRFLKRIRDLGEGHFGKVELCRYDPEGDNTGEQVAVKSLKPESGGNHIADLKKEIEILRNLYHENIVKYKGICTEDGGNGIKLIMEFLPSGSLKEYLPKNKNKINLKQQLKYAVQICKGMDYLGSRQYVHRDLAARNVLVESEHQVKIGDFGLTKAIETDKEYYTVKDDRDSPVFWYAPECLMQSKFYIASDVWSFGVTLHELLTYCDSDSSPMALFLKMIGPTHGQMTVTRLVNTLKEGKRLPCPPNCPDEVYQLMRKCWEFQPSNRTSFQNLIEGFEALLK
T3 sequence (Q9UM73 19-1620): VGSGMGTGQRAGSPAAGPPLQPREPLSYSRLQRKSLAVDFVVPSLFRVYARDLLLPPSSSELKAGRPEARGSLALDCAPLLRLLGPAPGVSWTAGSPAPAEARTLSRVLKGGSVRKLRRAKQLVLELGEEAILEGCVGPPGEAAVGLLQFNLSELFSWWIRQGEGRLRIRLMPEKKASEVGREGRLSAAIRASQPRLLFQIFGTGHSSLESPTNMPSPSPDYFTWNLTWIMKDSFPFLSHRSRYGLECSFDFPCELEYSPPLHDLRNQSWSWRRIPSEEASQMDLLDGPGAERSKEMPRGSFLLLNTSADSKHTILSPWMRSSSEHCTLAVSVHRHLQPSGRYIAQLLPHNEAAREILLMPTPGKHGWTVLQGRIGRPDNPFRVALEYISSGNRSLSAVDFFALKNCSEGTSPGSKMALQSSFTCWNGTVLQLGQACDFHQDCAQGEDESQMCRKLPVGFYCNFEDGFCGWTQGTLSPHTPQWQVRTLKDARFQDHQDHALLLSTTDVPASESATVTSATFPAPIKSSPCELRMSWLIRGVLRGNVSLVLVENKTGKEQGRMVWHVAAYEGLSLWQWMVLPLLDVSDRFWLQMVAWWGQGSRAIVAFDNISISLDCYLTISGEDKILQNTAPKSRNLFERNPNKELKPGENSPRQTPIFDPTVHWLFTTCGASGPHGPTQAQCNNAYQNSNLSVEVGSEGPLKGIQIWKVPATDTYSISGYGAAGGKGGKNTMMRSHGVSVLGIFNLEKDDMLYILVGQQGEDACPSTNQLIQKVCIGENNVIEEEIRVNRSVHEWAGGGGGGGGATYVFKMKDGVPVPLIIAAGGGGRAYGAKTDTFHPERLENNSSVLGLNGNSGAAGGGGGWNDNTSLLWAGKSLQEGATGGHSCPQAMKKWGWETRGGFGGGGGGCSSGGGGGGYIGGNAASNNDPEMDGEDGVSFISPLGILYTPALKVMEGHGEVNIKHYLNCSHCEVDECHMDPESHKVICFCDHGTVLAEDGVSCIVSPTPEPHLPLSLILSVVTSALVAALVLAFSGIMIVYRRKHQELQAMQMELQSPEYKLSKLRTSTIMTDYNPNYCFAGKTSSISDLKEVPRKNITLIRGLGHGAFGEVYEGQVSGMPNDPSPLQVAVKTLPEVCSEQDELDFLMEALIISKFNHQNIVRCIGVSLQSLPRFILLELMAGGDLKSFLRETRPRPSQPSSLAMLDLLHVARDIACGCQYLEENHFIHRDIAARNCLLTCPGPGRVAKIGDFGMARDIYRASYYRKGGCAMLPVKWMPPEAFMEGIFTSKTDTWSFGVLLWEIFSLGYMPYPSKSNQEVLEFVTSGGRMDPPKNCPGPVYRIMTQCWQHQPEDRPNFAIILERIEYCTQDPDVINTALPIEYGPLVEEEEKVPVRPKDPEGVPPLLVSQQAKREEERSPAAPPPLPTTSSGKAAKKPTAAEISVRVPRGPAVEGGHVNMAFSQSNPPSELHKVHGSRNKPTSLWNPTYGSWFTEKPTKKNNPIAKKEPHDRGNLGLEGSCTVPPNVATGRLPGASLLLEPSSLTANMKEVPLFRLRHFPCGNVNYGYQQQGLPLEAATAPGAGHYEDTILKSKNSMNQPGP

| SMILES | IC50 ([1]; Table D1) | IC50 ([4]; Table D1) | IC50 (TYK2; Table D1) | IC50 ([2]; Table D1) | further results |
| --- | --- | --- | --- | --- | --- |
| Cc1nocc1C(=O)N1CCC(CC(=O)Nc2ccc3cc2CCc2cncc(c2)Nc2ncc(Cl)c(n2)N3)CC1 [Example A165, N-[6-Chloro-2,4,8,18,22-pentaazatetracyclo[14.3.1.1(3,7).1(9,13)]docosa-1(20),3(22),4,6,9(21),10,12,16,18-nonaen-12-yl]-2-{1-[(3-methylisoxazol-4-yl)carbonyl]piperidin-4-yl}acetamide bis(trifluoroacetate)] | – | – | – | – | IC50 [1, 5]: 64 nM; IC50 [2, 6]: > 1000 nM; ALK % of inhibition at a concentration of 500 nM or 1 mM [3, 7]: 23% |
| Cn1ccnc1C(=O)N1CCC(CC(=O)Nc2ccc3cc2CCc2cncc(c2)Nc2ncc(Cl)c(n2)N3)CC1 [Example A164, N-[6-Chloro-2,4,8,18,22-pentaazatetracyclo[14.3.1.1(3,7).1(9,13)]docosa-1(20),3(22),4,6,9(21),10,12,16,18-nonaen-12-yl]-2-{1-[(1-methyl-1H-imidazol-2-yl)carbonyl]piperidin-4-yl}acetamide bis(trifluoroacetate)] | – | – | – | – | IC50 [1, 5]: 5.3 nM; IC50 [2, 6]: 175 nM; ALK % of inhibition at a concentration of 500 nM or 1 mM [3, 7]: 14% |
| O=C(CC1CCN(C(=O)c2ccns2)CC1)Nc1ccc2cc1CCc1cncc(c1)Nc1ncc(Cl)c(n1)N2 [Example A168, N-[6-Chloro-2,4,8,18,22-pentaazatetracyclo[14.3.1.1(3,7).1(9,13)]docosa-1(20),3(22),4,6,9(21),10,12,16,18-nonaen-12-yl]-2-[1-(isothiazol-5-ylcarbonyl)piperidin-4-yl]acetamide bis(trifluoroacetate)] | – | – | – | – | IC50 [1, 5]: 22 nM; ALK % of inhibition at a concentration of 500 nM or 1 mM [3, 7]: 27% |
| Cc1ccc(C(=O)N2CCC(CC(=O)Nc3ccc4cc3CCc3cncc(c3)Nc3ncc(Cl)c(n3)N4)CC2)o1 [Example A162, N-[6-Chloro-2,4,8,18,22-pentaazatetracyclo[14.3.1.1(3,7).1(9,13)]docosa-1(20),3(22),4,6,9(21),10,12,16,18-nonaen-12-yl]-2-[1-(5-methyl-2-furoyl)piperidin-4-yl]acetamide bis(trifluoroacetate)] | – | – | – | – | IC50 [1, 5]: 8.2 nM; IC50 [2, 6]: 289 nM; ALK % of inhibition at a concentration of 500 nM or 1 mM [3, 7]: 33% |
| NC1CCN(c2ccnc(Nc3ccc4cc3CCc3cncc(c3)Nc3ncc(Cl)c(n3)N4)n2)CC1 [Example B282, N-[4-(4-Aminopiperidin-1-yl)pyrimidin-2-yl]-6-chloro-2,4,8,18,22-pentaazatetracyclo[14.3.1.1(3,7).1(9,13)]docosa-1(20),3(22),4,6,9(21),10,12,16,18-nonaen-12-amine tetrakis(trifluoroacetate)] | – | – | – | – | IC50 ([1]; Table B1): > 1000 nM; IC50 ([2]; Table B1): > 1000 nM; ALK % of inhibition at a concentration of 500 nM or 1 mM ([3]; compound at a concentration of 500 nM or 1 mM (not specified), cells shown as percentage): 0% |
| O=C(OCc1ccccc1)N1CCC(CCNc2ccc3cc2CCc2cncc(c2)Nc2ncc(Cl)c(n2)N3)CC1 [Example D215, Benzyl 4-(2-{[6-chloro-2,4,8,18,22-pentaazatetracyclo[14.3.1.1(3,7).1(9,13)]docosa-1(20),3(22),4,6,9(21),10,12,16,18-nonaen-12-yl]amino}ethyl)piperidine-1-carboxylate] | 13 nM | > 400 nM | 276 nM | 44 nM | – |
| O=C(CC1CCN(c2nc3cccnc3o2)CC1)Nc1ccc2cc1CCc1cccc(c1)Nc1ncc(Cl)c(n1)N2 [Example A126, N-[6-Chloro-2,4,8,22-tetraazatetracyclo[14.3.1.1(3,7).1(9,13)]docosa-1(20),3(22),4,6,9(21),10,12,16,18-nonaen-12-yl]-2-(1-[1,3]oxazolo[5,4-b]pyridin-2-ylpiperidin-4-yl)acetamide bis(trifluoroacetate)] | – | – | – | – | IC50 [1, 5]: 0.5 nM; IC50 ([4]; method AA1 (3 μM ATP) or AA2 (1000 μM ATP), not stated per value): 34 nM; IC50 (TYK2): 7.5 nM; IC50 [2, 6]: 2.6 nM |
| N#Cc1ccc(NC(=O)N2CCC(CCOc3ccc4cc3CCc3cncc(c3)Nc3ncc(Cl)c(n3)N4)CC2)cc1 [Example D174, 4-(2-{[6-Chloro-2,4,8,18,22-pentaazatetracyclo[14.3.1.1(3,7).1(9,13)]docosa-1(20),3(22),4,6,9(21),10,12,16,18-nonaen-12-yl]oxy}ethyl)-N-(4-cyanophenyl)piperidine-1-carboxamide bis(trifluoroacetate)] | 160 nM | > 400 nM | > 400 nM | > 400 nM | – |
| CC(=O)N1CCC(COc2ccc3cc2CCc2cncc(c2)Nc2ncc(Cl)c(n2)N3)CC1 [Example D227, 12-[(1-Acetylpiperidin-4-yl)methoxy]-6-chloro-2,4,8,18,22-pentaazatetracyclo[14.3.1.1(3,7).1(9,13)]docosa-1(20),3(22),4,6,9(21),10,12,16,18-nonaene bis(trifluoroacetate)] | 72 nM | > 400 nM | > 400 nM | 148 nM | – |
| O=C(Cc1ccccc1)N1CCC(Nc2ccc3cc2CCc2cncc(c2)Nc2ncc(Cl)c(n2)N3)CC1 [Example D159, 6-Chloro-N-[1-(phenylacetyl)piperidin-4-yl]-2,4,8,18,22-pentaazatetracyclo[14.3.1.1(3,7).1(9,13)]docosa-1(20),3(22),4,6,9(21),10,12,16,18-nonaen-12-amine tris(trifluoroacetate)] | 313 nM | > 400 nM | > 400 nM | > 400 nM | – |
| COC(=O)Cn1c(=O)oc2c3cc(cc21)Nc1nc(ncc1Cl)Nc1cccc(c1)CC3 [Example D183, Methyl [4-chloro-19-oxo-18-oxa-2,6,8,20,25-pentaazapentacyclo[14.6.1.1(3,7).1(9,13).0(17,21)]pentacosa-1(23),3(25),4,6,9(24),10,12,16,21-nonaen-20-yl]acetate trifluoroacetate] | 12 nM | 64 nM | 166 nM | 22 nM | – |
| N#CCC(=O)N1CCN(C(=O)COc2ccc3cc2CCc2cncc(c2)Nc2ncc(Cl)c(n2)N3)CC1 [Example D269, 3-[4-({[6-Chloro-2,4,8,18,22-pentaazatetracyclo[14.3.1.1(3,7).1(9,13)]docosa-1(20),3(22),4,6,9(21),10,12,16,18-nonaen-12-yl]oxy}acetyl)piperazin-1-yl]-3-oxopropanenitrile bis(trifluoroacetate)] | 29 nM | > 400 nM | > 400 nM | 226 nM | – |
| O=C(c1ccccc1)N1CCN(c2ccc3cc2CCc2cccc(c2)Nc2ncc(Cl)c(n2)N3)CC1 [Example D94, 12-(4-Benzoylpiperazin-1-yl)-6-chloro-2,4,8,22-tetraazatetracyclo[14.3.1.1(3,7).1(9,13)]docosa-1(20),3(22),4,6,9(21),10,12,16,18-nonaene bis(trifluoroacetate)] | 79 nM | 138 nM | 160 nM | 43 nM | – |
| O=C(Cc1nc2ccccc2[nH]1)Nc1ccc2cc1CCc1cccc(c1)Nc1ncc(Cl)c(n1)N2 [Example C44, 2-(1H-Benzimidazol-2-yl)-N-[6-chloro-2,4,8,22-tetraazatetracyclo[14.3.1.1(3,7).1(9,13)]docosa-1(20),3(22),4,6,9(21),10,12,16,18-nonaen-12-yl]acetamide bis(trifluoroacetate)] | – | – | – | – | IC50 [1]: 70 nM; IC50 [4]: 779 nM; IC50 (TYK2): 478 nM; IC50 [2]: 53 nM |
| CC(=O)N1CCC[C@H](CC(=O)Nc2ccc3cc2CCc2cncc(c2)Nc2ncc(Cl)c(n2)N3)C1 [Example D205, 2-[(3R)-1-Acetylpiperidin-3-yl]-N-[6-chloro-2,4,8,18,22-pentaazatetracyclo[14.3.1.1(3,7).1(9,13)]docosa-1(20),3(22),4,6,9(21),10,12,16,18-nonaen-12-yl]acetamide bis(trifluoroacetate)] | 7.1 nM | 107 nM | 25 nM | 15 nM | – |
| O=S(=O)(c1ccccc1F)N1CCC(CCNc2ccc3cc2CCc2cncc(c2)Nc2ncc(Cl)c(n2)N3)CC1 [Example D221, 6-Chloro-N-(2-{1-[(2-fluorophenyl)sulfonyl]piperidin-4-yl}ethyl)-2,4,8,18,22-pentaazatetracyclo[14.3.1.1(3,7).1(9,13)]docosa-1(20),3(22),4,6,9(21),10,12,16,18-nonaen-12-amine tris(trifluoroacetate)] | 20 nM | > 400 nM | 59 nM | 70 nM | – |
| N#Cc1ccc(N2CCN(C(=O)COc3ccc4cc3CCc3cncc(c3)Nc3ncc(Cl)c(n3)N4)CC2)cc1 [Example D236, 4-[4-({[6-Chloro-2,4,8,18,22-pentaazatetracyclo[14.3.1.1(3,7).1(9,13)]docosa-1(20),3(22),4,6,9(21),10,12,16,18-nonaen-12-yl]oxy}acetyl)piperazin-1-yl]benzonitrile tris(trifluoroacetate)] | 90 nM | > 400 nM | > 400 nM | 288 nM | – |
